Reference: patent US8299096B2, “Method for treating pulmonary diseases using rho kinase inhibitor compounds” (priority 2008, dated 2012)
Read-outs that look alike come from different tables or passages of the source.

Legend:
[1] = target: T1, IRAK4 (Homo sapiens, UniProt Q9NWZ3); test: Kinase panel screen, IRAK4; format: biochemical; details: 10 μM ATP
T1 construct: purchased Upstate, Millipore Bioscience Division (KinaseProfiler service)
T1 sequence (Q9NWZ3 1-460): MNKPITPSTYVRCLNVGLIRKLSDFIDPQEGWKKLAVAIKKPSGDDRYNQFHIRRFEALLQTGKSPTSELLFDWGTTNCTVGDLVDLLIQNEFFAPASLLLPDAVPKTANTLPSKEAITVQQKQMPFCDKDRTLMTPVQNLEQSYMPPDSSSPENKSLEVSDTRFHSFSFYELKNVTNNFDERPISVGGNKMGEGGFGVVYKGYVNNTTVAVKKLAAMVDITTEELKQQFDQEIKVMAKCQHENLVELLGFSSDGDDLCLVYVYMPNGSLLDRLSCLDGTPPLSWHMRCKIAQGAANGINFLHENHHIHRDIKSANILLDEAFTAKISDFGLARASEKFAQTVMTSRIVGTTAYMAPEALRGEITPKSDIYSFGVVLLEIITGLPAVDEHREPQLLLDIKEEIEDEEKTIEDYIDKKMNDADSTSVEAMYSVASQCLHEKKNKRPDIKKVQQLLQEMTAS
Procedure: (§1) Compounds of Formulae I and II were examined for activity against a selected panel of kinases using the KinaseProfiler™ enzyme profiling services (Upstate, Millipore Bioscience Division). Percent kinase activity at 10 μM and 1 μM test compound and 10 μM ATP was determined against 40 wild-type recombinant human kinases according to Upstate's standard protocol: ASK1, BTK, CSK, c-RAF, GCK, GSK3β, IKKα, IKKβ, IRAK1, IRAK4, JNK1α1, JNK2α2, JNK3, ERK1, ERK2, MAPKAP-K2, MAPKAP-K3, MEK1, MKK4, MKK6, MKK7β, Mnk2, MSK1, PAK3, PDK1, PRAK, ROCK1, Rsk2, SAPK2a, SAPK2b, SAPK3, SAPK4, SRPK1, SRPK2, Syk, TAK1, TBK1, PI3-Kβ, PI3-Kγ, PI3-Kδ.

[2] = target: T2, Mnk2 (Homo sapiens, UniProt Q9HBH9); test: Kinase panel screen, Mnk2; format: biochemical; details: 10 μM ATP
T2 construct: purchased Upstate, Millipore Bioscience Division (KinaseProfiler service)
Procedure: as §1

[3] = target: T3, GCK (Homo sapiens, UniProt Q12851); test: Kinase panel screen, GCK; format: biochemical; details: 1 μM test compound, 10 μM ATP
T3 construct: purchased Upstate, Millipore Bioscience Division (KinaseProfiler service)
T3 sequence (Q12851 1-820): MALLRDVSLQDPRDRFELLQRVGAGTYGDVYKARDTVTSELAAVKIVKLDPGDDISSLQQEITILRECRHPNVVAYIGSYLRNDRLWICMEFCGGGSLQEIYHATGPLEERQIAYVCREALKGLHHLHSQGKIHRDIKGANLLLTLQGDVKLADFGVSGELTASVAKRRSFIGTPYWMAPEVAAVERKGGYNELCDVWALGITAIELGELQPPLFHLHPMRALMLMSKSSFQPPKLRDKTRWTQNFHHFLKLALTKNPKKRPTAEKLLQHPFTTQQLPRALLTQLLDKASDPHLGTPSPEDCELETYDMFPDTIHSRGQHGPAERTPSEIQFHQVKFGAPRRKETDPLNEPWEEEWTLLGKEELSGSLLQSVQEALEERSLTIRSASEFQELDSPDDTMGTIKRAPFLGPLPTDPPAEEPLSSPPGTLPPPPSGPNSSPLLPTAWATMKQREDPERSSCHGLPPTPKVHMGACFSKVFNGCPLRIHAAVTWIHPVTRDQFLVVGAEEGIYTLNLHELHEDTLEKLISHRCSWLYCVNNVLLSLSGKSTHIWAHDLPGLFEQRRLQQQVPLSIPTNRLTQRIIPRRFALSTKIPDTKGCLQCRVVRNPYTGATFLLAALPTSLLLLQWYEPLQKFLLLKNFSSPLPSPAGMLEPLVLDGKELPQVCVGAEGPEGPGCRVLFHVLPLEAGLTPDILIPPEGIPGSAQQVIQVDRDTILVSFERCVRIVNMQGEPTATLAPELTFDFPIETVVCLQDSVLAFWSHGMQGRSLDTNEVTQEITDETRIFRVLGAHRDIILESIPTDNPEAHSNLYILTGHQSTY
Procedure: as §1

[4] = target: T4, IRAK1 (Homo sapiens, UniProt P51617); test: Kinase panel screen, IRAK1; format: biochemical; details: 10 μM ATP
T4 construct: purchased Upstate, Millipore Bioscience Division (KinaseProfiler service)
Procedure: as §1

[5] = test system: ovalbumin-sensitized mice; test: Prevention of airway hyperreactivity development, anti-inflammatory dosing paradigm (Penh); format: in vivo, mouse; details: intratracheal, once a day, days 27 to 30 (1.091) or 27 to 31
[6] = target: T5, ROCK1 (Homo sapiens, UniProt Q13464); test: Rho kinase inhibition assay (IMAP), ROCK1; format: biochemical
T5 construct: purchased Upstate/Chemicon 14-601
Procedure: Following the pre-incubation, 10 μM ATP was added to initiate the reaction. After 60 minutes at room temperature, Molecular Devices IMAP™ binding solution was added to bind phosphorylated substrate. After 30 minutes of incubation in the presence of the IMAP™ beads, the fluorescence polarization was read and the ratio was reported as mP. IC50 values for compounds and EC50 values for ATP were calculated using the Prism software from Graphpad.

[7] = target: T6, p70S6K (Homo sapiens, UniProt P23443, T412E); test: p70S6K inhibition assay (IMAP); format: biochemical
T6 construct: purchased Upstate Chemicon 14-486
Procedure: Inhibition of Akt3 and p70S6K activity was determined using the IMAP™ FP Progressive Binding Kit (Molecular Devices product number R8127). […] Following the pre-incubation, 30 M ATP was added to initiate the reaction. After 60 minutes at RT, Molecular Devices IMAP™ binding solution was added to bind phosphorylated substrate. After 30 minutes of incubation in the presence of the IMAP™ beads the fluorescence polarization was read and the ratio was reported as mP. IC50 results were calculated using the Prism software from Graphpad. The Ki values were determined according to the following formula: Ki=IC50/(1+([ATP Challenge]/EC50 ATP)).

[8] = Compound plasma concentrations in mice at 15 min post administration; format: in vivo, mouse; details: mouse
Procedure: Additionally, compound concentrations were determined in the plasma and lungs of male, ovalbumin-sensitized, Balb/c mice from a murine model of asthma. Test compounds were formulated in water or 1% polysorbate 80 and dosed at 15 μmol/kg for intraperitoneal (IP) or oral (PO) administration or formulated for intratracheal (IT) administration and dosed at 5 μmol/kg, which directly targets the lungs. Following completion of the in vivo study, mice were euthanized and blood and plasma collected approximately 2.5-3 hours post administration of test compound for bronchodialator (BD) studies and 24 hours post administration for anti-inflamatory (AI) studies. Lungs were homogenized in Matrix A lysing tubes using a FastPrep 24 tissue and cell homogenizer (MP Biomedicals, Solon, Ohio). Both plasma samples and lung extracts were assayed for compound concentrations using an on-line, solid phase extraction LC/MS/MS system.

[9] = test system: LPS-challenged mice; test: LPS-induced neutrophilia and cytokine production assay; format: in vivo, mouse; details: intratracheal administration, LPS-challenged mice
[10] = test system: rat tracheal rings; test: Tracheal relaxation assay, carbachol precontracted rings; details: average percentage of carbachol-induced rat trachael ring contraction at 1 μM of test compound
Procedure: Trachea were excised, cleaned of connective tissue and cut into cylindrical segments of 2-3 mm length. Two stainless steel wires were guided through the lumen of the tracheal ring. One wire was fixed in the tissue bath and the other was connected to a force transducer via surgical silk. […] Indomethacin (1 μM), a cyclooxygenase inhibitor, was added to the Krebs buffer and was present throughout the experiments. Contractile tensions were measured using an isometric force transducer (Grass Instruments) and signals were analyzed using specialized software (Chart v5.5, ADInstruments). The preparations were allowed to equilibrate at a resting tension of 0.3 to 0.5 gm prior to two challenges with 60 mM KCl to assess tissue viability. After washing, tissues were treated with 1 μM carbachol for 10 to 15 minutes to induce a contractile response. Test Compounds were added cumulatively to the bath every 30 minutes and reductions in tension were recorded. Basal tension was subtracted from all values and data were reported as a percentage of the maximal carbachol-induced contraction. Data were fit to the Hill equation using GraphPad Prism v5 software.

[11] = Rat oral pharmacokinetics (plasma); format: in vivo
Procedure: Plasma (EDTA K2 anticoagulant) was collected from male, cannulated, CD Sprague Dawley rats to determine the pharmacokinetics of formulations containing compound inhibitors of Rho kinase. Each animal was dosed orally with a 4 ml/kg solution or suspension of each test compound in 10 mM acetate buffered saline, pH 4.5 at a final concentration range of 20-30 μmol/kg. Blood was collected at 0.25, 0.5, 1, 2, 4, 6, 8, and 24 hours. Plasma samples were assayed for the concentration of the test compound using an on-line, solid phase extraction LC/MS/MS analysis system.
Samples were analyzed on a QSTAR Elite, hybrid quadrupole time-of-flight mass spectrometer (Applied Biosystems, Framingham, Mass.) coupled with a Symbiosis Pharma integrated, on-line SPE-HPLC system (Spark Holland Inc., Plainsboro, N.J.). Analyst QS 2.0 software was used for instrument control, data acquisition and processing. […] Mobile Phase A consisted of 0.1% ammonium hydroxide in water and Mobile Phase B consisted of 0.1% formic acid in acetonitrile. Pharmacokinetic analyses were performed using WinNonlin software version 5.2 (Pharsight Corporation, Mountain View, Calif.).

[12] = test system: ovalbumin-sensitized mice; test: Bronchodilator assay in ovalbumin-sensitized mouse model of asthma (Penh); format: in vivo
Procedure: Male BALB/c mice were ordered from Charles River Laboratories (Raleigh, N.C.). The animals were approximately 19 to 21 grams at time of receipt. Upon arrival, the animals were randomized into groups of five males per cage and assigned to a dosing group. Animals were quarantined for 7 days under test conditions. They were observed daily for general health status and ability to adapt to the water bottles.
Animals were sensitized on day 0 and 14 of study by an intraperitoneal injection with 20 μg of ovalbumin (ova) and 2.0 mg aluminum hydroxide (alum) which initiates the development of a specific T-helper (Th) cells type 2 resulting in asthmatic animals. One group of animals received an injection of saline to use as non-asthmatic control animals. All animals were challenged with aerosolized 1% ova once daily for 25 minutes on days 28, 29, and 30 (Zosky, et al. Respiratory Research, 2004; 5:15). Aerosol challenge consists of using an Aerogen Aeroneb nebulizer and controller with a particle size of 4-6 μm mass median aerodynamic diameter (MMAD) with a distribution of 400 μl per minute. This aerosol challenge is necessary to target the Th2-driven allergic inflammation in the lower airways.
The test compounds and the control vehicle were administered to animals on the day of airway hyperreactivity evaluation 30 minutes to 1 hour before the evaluation to determine the bronchodilator effects of the compounds according to the bronchodilator dosing paradigm (FIG. 3A). Compounds were administered p.o. (orally), i.p. (intraperitoneally) at 15 μMol/kg unless otherwise noted (Table 4). Alternatively, compounds were administered i.t. (intratracheally) at varying doses as shown (FIG. 3B). On day 32 of the experiment, airway hyperreactivity was evaluated by placing conscious, unrestrained animals in a whole body plethysmometer (Buxco Wilmington, N.C.) and exposing them to escalating doses of nebulized methacholine, a known bronchial constrictor which acts through the muscarinic receptors of the lungs, (doses: […]-50 mg/ml). Exposure to the methacholine doses consisted of a 3 minute period during which a nebulizer was aerosolizing the methacholine and an additional 3 minute period following the cessation of nebulization. Over this 6 minute period, the plethysmometer monitors and generates numerical values for all parameters of the breath pattern. Enhanced pause (Penh), a unitless index of airway hyperreactivity, is derived from the expiratory side of the respiratory waveform measured via the plethysmograph and is used as an indirect measure of airway resistance and hyperreactivity. […] Following the methacholine dose response, all animals were anesthetized, bled and euthanized.
Within each experiment, a mouse was given a single compound and exposed to increasing doses of methacholine [0 (baseline), 0.375, 0.75, 1.5, 3, 6, 12, 25, 50 mg/ml]. The Penh value at each of the dose levels of methacholine represents the 6-minute average response. Change from baseline (CFB) in Penh was calculated at each methacholine dose and the area under the curve (AUC) for these CFB values was calculated using the trapezoidal rule. This same approach was applied for each mouse across multiple experiments.
For statistical analyses, a linear mixed-effects model where the response was the log 10 transformed value of AUC described above was used. Data from equal experimental conditions across experiments performed on different days were pooled for statistical analysis and data reporting. The various compounds were compared adjusting for the log 10-transformed baseline value of Penh and the chamber (1 of 10) of the plethysmometer each mouse was contained in during an experiment. A random intercept for each experiment was assumed to account for possible similarities of the results obtained from a given experiment (i.e., as a “blocking effect”).
For Table 4 and Table 5, Penh values are reported as log 10 transformed AUC values. […]

[13] = read-out: ROCK1 Ki, average Ki (Example 1)
[14] = IMAP FP, human enzyme, Ki=IC50/(1+([ATP Challenge]/EC50 ATP)), read-out: p70S6K Ki, Avg
[15] = average Ki (Example 31), read-out: p70S6K Ki
[16] = Balb/c, 15 μmol/kg, mean compound plasma concentration in mice at 15 minutes post oral administration, read-out: Mouse Oral PK
[17] = mice, plasma, 15 min post administration (oral dosing), mean of n = 3 mice, read-out: Plasma Mean Concentration
[18] = rat, oral, 20-30 μmol/kg, plasma, mean n = 3

T5 sequence (Q13464 17-535 limits assumed): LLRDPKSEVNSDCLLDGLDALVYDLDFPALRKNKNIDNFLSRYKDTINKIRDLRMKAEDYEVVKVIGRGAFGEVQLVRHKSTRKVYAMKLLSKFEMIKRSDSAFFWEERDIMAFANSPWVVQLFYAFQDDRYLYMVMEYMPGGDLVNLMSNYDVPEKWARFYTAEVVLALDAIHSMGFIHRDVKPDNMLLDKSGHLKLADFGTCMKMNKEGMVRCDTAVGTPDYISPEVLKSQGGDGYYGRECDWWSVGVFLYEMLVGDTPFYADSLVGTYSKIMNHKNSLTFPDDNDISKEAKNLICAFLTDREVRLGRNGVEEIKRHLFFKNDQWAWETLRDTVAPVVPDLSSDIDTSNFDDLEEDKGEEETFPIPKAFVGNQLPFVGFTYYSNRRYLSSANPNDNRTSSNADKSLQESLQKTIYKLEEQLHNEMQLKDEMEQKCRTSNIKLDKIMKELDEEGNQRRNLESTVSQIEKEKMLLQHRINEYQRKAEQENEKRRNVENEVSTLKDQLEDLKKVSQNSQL
T2 sequence (Q9HBH9 whole entry): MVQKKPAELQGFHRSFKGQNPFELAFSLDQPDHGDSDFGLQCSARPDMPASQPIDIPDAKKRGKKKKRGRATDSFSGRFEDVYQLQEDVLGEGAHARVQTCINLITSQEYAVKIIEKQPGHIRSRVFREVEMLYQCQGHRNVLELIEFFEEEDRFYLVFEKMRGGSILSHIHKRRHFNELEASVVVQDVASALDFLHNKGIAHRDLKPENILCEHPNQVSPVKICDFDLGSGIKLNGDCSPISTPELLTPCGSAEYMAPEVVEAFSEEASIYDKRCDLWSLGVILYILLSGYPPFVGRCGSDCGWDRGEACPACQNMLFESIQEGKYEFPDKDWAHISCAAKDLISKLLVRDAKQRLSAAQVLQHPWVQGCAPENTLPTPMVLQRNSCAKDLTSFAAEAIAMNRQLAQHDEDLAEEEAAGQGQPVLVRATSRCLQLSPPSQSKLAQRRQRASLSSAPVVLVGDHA
T6 sequence (P23443 1-421 T412E limits assumed): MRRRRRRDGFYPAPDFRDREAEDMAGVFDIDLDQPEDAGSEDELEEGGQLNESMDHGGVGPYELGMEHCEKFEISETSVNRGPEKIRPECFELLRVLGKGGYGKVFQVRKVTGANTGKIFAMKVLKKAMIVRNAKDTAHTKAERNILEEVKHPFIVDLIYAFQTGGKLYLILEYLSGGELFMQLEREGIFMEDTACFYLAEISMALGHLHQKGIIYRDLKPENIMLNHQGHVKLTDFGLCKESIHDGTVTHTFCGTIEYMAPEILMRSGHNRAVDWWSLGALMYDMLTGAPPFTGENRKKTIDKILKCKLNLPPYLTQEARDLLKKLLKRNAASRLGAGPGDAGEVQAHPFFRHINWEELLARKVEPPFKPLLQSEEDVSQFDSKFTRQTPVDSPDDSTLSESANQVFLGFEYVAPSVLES
T4 sequence (P51617 whole entry): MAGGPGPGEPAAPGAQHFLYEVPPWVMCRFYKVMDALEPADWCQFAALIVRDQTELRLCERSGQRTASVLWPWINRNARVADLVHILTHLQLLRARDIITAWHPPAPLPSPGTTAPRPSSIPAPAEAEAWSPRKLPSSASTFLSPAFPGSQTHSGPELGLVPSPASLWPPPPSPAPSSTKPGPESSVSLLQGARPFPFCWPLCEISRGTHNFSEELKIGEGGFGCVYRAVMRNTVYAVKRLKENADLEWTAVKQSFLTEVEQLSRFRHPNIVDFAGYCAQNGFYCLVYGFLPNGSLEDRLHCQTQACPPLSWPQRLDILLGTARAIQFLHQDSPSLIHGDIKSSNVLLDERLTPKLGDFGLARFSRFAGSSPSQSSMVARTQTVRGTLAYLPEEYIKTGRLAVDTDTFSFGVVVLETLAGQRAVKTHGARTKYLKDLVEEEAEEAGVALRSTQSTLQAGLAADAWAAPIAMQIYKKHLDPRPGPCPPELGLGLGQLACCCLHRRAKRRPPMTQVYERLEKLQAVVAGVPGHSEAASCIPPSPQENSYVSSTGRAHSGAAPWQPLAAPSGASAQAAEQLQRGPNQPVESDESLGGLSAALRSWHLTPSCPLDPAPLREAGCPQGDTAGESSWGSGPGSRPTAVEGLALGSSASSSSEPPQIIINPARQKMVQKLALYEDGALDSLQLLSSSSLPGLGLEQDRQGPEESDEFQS

| Percent inhibition, IRAK4 ([1]; 1 μM test compound) | Percent inhibition, IRAK4 ([1]; 10 μM test compound) | Percent inhibition, Mnk2 ([2]; 1 μM test compound) | Percent inhibition, Mnk2 ([2]; 10 μM test compound) | percent inhibition at 1 µM [3] | Percent inhibition, IRAK1 ([4]; 1 μM test compound) | Percent inhibition, IRAK1 ([4]; 10 μM test compound) | SMILES | Prevention of airway hyperreactivity [5] | other results |
| --- | --- | --- | --- | --- | --- | --- | --- | --- | --- |
| 96% | 109% | 108% | 106% | 96% | 106% | 99% | Cc1ccc(CN2CCC[C@@H](Nc3ccc4[nH]ncc4c3)C2)cc1OCCO [Compound 1.161] | prevention of airway hyperreactivity | – |
| – | – | – | – | – | – | – | Cc1ccc(CN2CCC[C@@H](Nc3ccc4[nH]ncc4c3)C2)cc1NS(=O)(=O)N(C)C [Compound 1.262] | – | Ki [6]: 0.0549 µM; Ki [6, 13]: 0.0549 µM; Ki [7, 14]: 5.44 µM; Ki [7, 15]: 5.44 µM; concentration at 15 min [8, 16]: 285 nM; concentration at 15 min [8, 17]: 285 nM |
| – | – | 99% | 54% | 39% | 74% | 32% | OCCn1ccc2cc(CN3CC[C@@H](Nc4cccc5cnccc45)C3)ccc21 [Compound 2.066] | prevention of airway hyperreactivity | – |
| – | – | – | – | – | – | – | CCc1ccc(CN2CCC[C@@H](Nc3ccc4[nH]ncc4c3)C2)cc1 [Compound 1.136] | – | Trachael Ring Contraction [10]: 45%; Oral bioavailability ([11]; oral dosing): poor; AUC (0-last) [11, 18]: below the level of quantification; Cmax [11, 18]: below the level of quantification; Reduction in airway hyperresponsiveness ([12]; i.p. route of administration, compared to oral dosing): enhanced reduction; Reduction in airway hyperresponsivness ([12]; oral doses): did not yield a significant reduction |
| – | – | – | – | – | – | – | Cc1ccc(CN2CCC[C@H](Nc3ccc4[nH]ncc4c3)C2)cc1NS(=O)(=O)N(C)C [Compound 1.237] | – | Ki [6]: 0.287 µM; Ki [6, 13]: 0.287 µM; Ki [7, 14]: 9.87 µM; Ki [7, 15]: 9.87 µM; concentration at 15 min [8, 16]: 178 nM; concentration at 15 min [8, 17]: 178 nM |
| 105% | 88% | 111% | 65% | 93% | 100% | 97% | NC(=O)Cn1ccc2cc(CN3CCC[C@@H](Nc4ccc5[nH]ncc5c4)C3)ccc21 [Compound 1.162] | – | – |

| SMILES | Percent inhibition, IRAK4 ([1]; 1 μM test compound) | Percent inhibition, IRAK4 ([1]; 10 μM test compound) | Percent inhibition, Mnk2 ([2]; 1 μM test compound) | Percent inhibition, Mnk2 ([2]; 10 μM test compound) | percent inhibition at 1 µM [3] | Percent inhibition, IRAK1 ([4]; 1 μM test compound) | Percent inhibition, IRAK1 ([4]; 10 μM test compound) | Prevention of airway hyperreactivity [5] | other results |
| --- | --- | --- | --- | --- | --- | --- | --- | --- | --- |
| NC(=O)Cn1ccc2cc(CN3CC[C@@H](Nc4cccc5cnccc45)C3)ccc21 [Compound 2.059] | 63% | 22% | 49% | 12% | 75% | 87% | 30% | prevention of airway hyperreactivity | IL-1β levels in BALF [9]: reduction |
